# Source: publication PMC12434071, “Platinum-group metal half-sandwich complexes of 1-(α-D-glucopyranosyl)-4-hetaryl-1,2,3-triazoles: synthesis, solution equilibrium studies, and investigation of their anticancer and antimicrobial activities” (Frontiers in Chemistry, 2025)
# How the values were obtained:
# [1] = system: A2780 cells; assay: SRB assay on A2780 cells; type: cell-based; conditions: maximal inhibition; 48 h treatment; maximum concentration 100 µM
# Protocol: For MTT assays, 4 × 10^3 A2780 cells were plated into 96-well plates, and for SRB assays, 1.5 × 10^3 A2780 cells were plated into 96-well plates. Cells were treated with the compounds in the concentrations indicated for either 4 h for an MTT assay or for 48 h for an SRB assay. Data are represented as average ± SD, from four biological replicates, with the exception of the MTT dataset of Ir-2b and the SRB datasets of 2b, Ru/Ir-2b, and Ir-3a, which were derived from three biological replicates. Individual assays were performed in duplicate. Values were normalized for vehicle-treated cells, and the absorbance for vehicle-treated cells equals 1. Data are represented as fold change compared to vehicle-treated controls. Normality was assessed using the D’Agostino–Pearson test. Statistical significance was assessed using a two-way ANOVA test followed by Tukey’s post hoc test. For better visibility, normality, transformations, statistical tests, and p values are presented in an MS Excel sheet at https://figshare.com/s/3a0aa60b66f3f746f41e. Color code: black—free ligand (2a,b or 3a), khaki—ruthenium complex (Ru-2a,b or Ru-3a), green—iridium complex (Ir-2a,b or Ir-3a).  FIGURE 7 The ruthenium, osmium, and iridium complexes of ligands 4a, 4b, and 5a are cytostatic on ovarian cancer models with a good therapeutic index. For SRB assays, 1.5 × 10^3 A2780 cells, 1.5 × 10^3 ID8 cells, or 4 × 10^3 primary fibroblasts were plated into 96-well plates. Cells were treated with the compounds in the concentrations indicated for 48 h. Data are represented as average ± SD, from four biological replicates on A2780 and human primary fibroblasts, except in the case of Os complexes, where experiments were performed in three biological replicates. ID8 cells were assessed in three biological replicates. Individual assays were performed in duplicate. Values were normalized for vehicle-treated cells, and the absorbance for vehicle-treated cells equals 1. Normality was assessed using the D’Agostino–Pearson test. Statistical significance was assessed using a two-way ANOVA test followed by Tukey’s post hoc test. For better visibility, normality, transformations, statistical tests, and p values are presented in an MS Excel sheet at https://figshare.com/s/3a0aa60b66f3f746f41e. Color code: black—free ligand (4a,b or 5a), khaki—ruthenium complex (Ru-4a,b), blue—osmium complex (Os-4a,b or Os-5a), green—iridium complex (Ir-4a,b), and red—rhodium complex (Rh-4a,b). An SRB assay measures protein content of cells in correlation with the cell number in an assay well and can therefore be used to assess cell proliferation or long-term cytostasis ([Skehan et al., 1990]). Cells were seeded into 96-well plates the day before the treatment for the assay. Cells were treated with the various compounds for 48 h. Then, the medium was removed, and cells were fixed with 10% trichloroacetic acid. Fixed cells were washed in distilled water three times, followed by staining with SRB (0.4 m/V% dissolved in 1% acetic acid) for 10 min. Stained cells were washed in 1% acetic acid five times; the acetic acid was removed, and the cells were left to dry. Protein-bound SRB was released by adding 100 µL of 10 mM Tris base. Plates were measured in a plate photometer (Thermo Scientific Multiscan GO spectrophotometer, Waltham, MA, United States) at 540 nm. Certain wells were designated to contain vehicle-treated cells on each plate. […] Statistical analysis was performed using version 8.0.1 of GraphPad Prism. Values were tested for normal distribution using the D’Agostino–Pearson or Shapiro–Wilk normality tests. When necessary, values were log-normalized or normalized using the Box–Cox or two-step normalization method ([Box and Cox, 1964]), as indicated in the MS Excel file listing the values at https://figshare.com/s/3a0aa60b66f3f746f41e. […]
# [2] = system: human primary dermal fibroblasts; assay: MTT reduction assay on human primary dermal fibroblasts; type: cell-based; conditions: maximal inhibition; 4 h treatment; maximum concentration 100 µM
# Protocol: FIGURE 5 The ruthenium, osmium, and iridium complexes of ligands 4a, 4b, and 5a decrease MTT reduction. For MTT assays, 4 × 10^3 A2780 cells, 3 × 10^3 ID8 cells, or 6 × 10^3 human primary fibroblasts were plated into 96-well plates. Cells were treated with the compounds in the concentrations indicated for 4 h. Data are represented as average ± SD, from four biological replicates on A2780, and from three biological replicates on ID8 and human primary fibroblasts. For the datasets of 5a and Os-5a on human primary fibroblasts, the data represent four biological replicates. Individual assays were performed in duplicate. Values were normalized for vehicle-treated cells, and the absorbance for vehicle-treated cells equals 1. Normality was assessed using the D'Agostino-Pearson test. Statistical significance was assessed using a two-way ANOVA test followed by Tukey's post hoc test. For better visibility, normality, transformations, statistical tests, and p values are presented in an MS Excel sheet at https://figshare.com/s/3a0aa60b66f3f746f41e. Color code: black-free ligand (4a,b or 5a), khaki-ruthenium complex (Ru-4a,b), green-iridium complex (Ir-4a,b), blue-osmium complex (Os-4a,b or Os-5a), and red-rhodium complex (Rh-4a,b). An MTT reduction assay measures the activity of mitochondrial complex I and can be used to detect toxicity ([[…] et al., 2016]). The assay was performed in a manner similar to that described by [[…] et al. (2023b)]. Briefly, cells were plated into 96-well plates the day before the assay. Cells were treated with the compounds for 4 h; then, MTT was added to a 0.5 mg/mL final concentration, and cells were incubated at 37°C in a cell incubator for 40-60 min, as a function of the cell line being assessed. The culture medium was removed, the reduced MTT dye was dissolved in dimethylsulfoxide, and plates were measured in a plate photometer (Thermo Scientific Multiscan GO spectrophotometer, Waltham, MA, United States) at 540 nm. […] In calculations, the readings for these wells were considered to 1, and all readings were expressed relative to these values. […]
SMILES,A2780 SRB max % [1],Fibroblast MTT max % [2]
"OC[C@H]1O[C@H](n2cc(-c3ccccn3)nn2)[C@H](O)[C@@H](O)[C@@H]1O [Complex 3a, 1-(α-D-Glucopyranosyl)-4-(pyridin-2-yl)-1,2,3-triazole]",0%,–
"O=C(OC[C@H]1O[C@H](n2cc(-c3ccccn3)nn2)[C@H](OC(=O)c2ccccc2)[C@@H](OC(=O)c2ccccc2)[C@@H]1OC(=O)c1ccccc1)c1ccccc1 [Complex 4a, 1-(2’,3’,4’,6’-Tetra-O-benzoyl-α-D-glucopyranosyl)-4-(pyridin-2-yl)-1,2,3-triazole]",29.51%,0%
"O=C(OC[C@H]1O[C@H](n2cc(-c3ccc4ccccc4n3)nn2)[C@H](OC(=O)c2ccccc2)[C@@H](OC(=O)c2ccccc2)[C@@H]1OC(=O)c1ccccc1)c1ccccc1 [Complex 4b, 1-(2’,3’,4’,6’-Tetra-O-benzoyl-α-D-glucopyranosyl)-4-(quinolin-2-yl)-1,2,3-triazole]",0%,0%
"CCCCC(=O)OC[C@H]1O[C@H](n2cc(-c3ccccn3)nn2)[C@H](OC(=O)CCCC)[C@@H](OC(=O)CCCC)[C@@H]1OC(=O)CCCC [Complex 5a, 1-(2’,3’,4’,6’-Tetra-O-pentanoyl-α-D-glucopyranosyl)-4-(pyridin-2-yl)-1,2,3-triazole]",33.92%,15.72%
